In article PMC3494675, “Structure-Function Analysis of the Glioma Targeting NFL-TBS.40-63 Peptide Corresponding to the Tubulin-Binding Site on the Light Neurofilament Subunit” (PLoS ONE, 2012):
Peptide text beside a SMILES is read from it. * marks the point of attachment. Biotin = O=C1N[C@H]2[C@H](CS[C@H]2CCCCC(=O)*)N1

Columns and labels:
[1] = tested on: T98G human glioblastoma cells; assay: Peptide incorporation into T98G cells (immunocytochemistry, cell counting); type: cell-based; details: T98G cells, 10 µM biotinylated peptide, 6 hours; Alexa-labeled avidin/streptavidin fluorescence microscopy; minimum 200 cells per experiment; mean ± S.E.M., triplicated
Summary of the method: (§1)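 Cells on cover slips were cultured 6 h with 10 μM biotinylated peptide, permeabilized, and stained with anti-β-tubulin plus fluorescent streptavidin. By fluorescence/confocal microscopy, ≥200 cells per experiment were scored for peptide uptake and for a normal versus destroyed microtubule network; at least three repeats.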

[2] = tested on: T98G human glioblastoma cells; assay: Disintegration of the microtubule network in T98G cells (anti-tubulin immunostaining, cell counting); type: cell-based; details: T98G cells, 10 µM biotinylated peptide, 6 hours; anti-tubulin immunostaining; minimum 200 cells per experiment; mean ± S.E.M., triplicated
Summary of the method: as §1

SMILES | Peptide incorporation (% of cells) [1] | Disintegration of MT (% of cells) [2]
CC(C)C[C@H](NC(=O)[C@H](CO)NC(=O)[C@H](CO)NC(=O)[C@H](CO)NC(=O)[C@@H](NC(=O)[C@@H]1CCCN1C(=O)[C@H](C)NC(=O)[C@H](CO)NC(=O)[C@H](Cc1ccc(O)cc1)NC(=O)[C@H](CO)NC(=O)[C@H](CO)NC(=O)[C@H](Cc1ccc(O)cc1)NC(=O)CCCC[C@@H]1SC[C@@H]2NC(=O)N[C@@H]21)C(C)C)C(=O)N[C@@H](CO)C(=O)N[C@H](C(=O)N[C@@H](CCCNC(=N)N)C(=O)N[C@@H](CCCNC(=N)N)C(=O)N[C@@H](CO)C(=O)N[C@@H](Cc1ccc(O)cc1)C(=O)N[C@@H](CO)C(=O)N[C@@H](C)C(=O)N[C@@H](CO)C(=O)N[C@@H](CO)C(=O)NCC(=O)N[C@@H](CO)C(N)=O)C(C)C [Ser20Ala] (Biotin-YSSYSAPVSSSLSVRRSYSASSGS-NH2) | 6.4±1.2 % of cells | 16.4±6.4 % of cells
CC(C)C[C@H](NC(=O)[C@H](CO)NC(=O)[C@H](CO)NC(=O)[C@H](CO)NC(=O)[C@@H](NC(=O)[C@@H]1CCCN1C(=O)[C@H](C)NC(=O)[C@H](CO)NC(=O)[C@H](Cc1ccc(O)cc1)NC(=O)[C@H](CO)NC(=O)[C@H](CO)NC(=O)[C@H](Cc1ccc(O)cc1)NC(=O)CCCC[C@@H]1SC[C@@H]2NC(=O)N[C@@H]21)C(C)C)C(=O)N[C@@H](CO)C(=O)N[C@H](C(=O)N[C@@H](CCCNC(=N)N)C(=O)N[C@@H](CCCNC(=N)N)C(=O)N[C@@H](CO)C(=O)N[C@@H](Cc1ccc(O)cc1)C(=O)N[C@@H](CO)C(=O)N[C@@H](CO)C(=O)N[C@@H](C)C(=O)N[C@@H](CO)C(=O)NCC(=O)N[C@@H](CO)C(N)=O)C(C)C [Ser21Ala] (Biotin-YSSYSAPVSSSLSVRRSYSSASGS-NH2) | 55.4±5.9 % of cells | 31.6±5.1 % of cells
CC(C)C[C@H](NC(=O)[C@H](CO)NC(=O)[C@H](CO)NC(=O)[C@H](CO)NC(=O)[C@@H](NC(=O)[C@@H]1CCCN1C(=O)[C@H](C)NC(=O)[C@H](CO)NC(=O)[C@H](Cc1ccc(O)cc1)NC(=O)[C@H](CO)NC(=O)[C@H](CO)NC(=O)[C@H](Cc1ccc(O)cc1)NC(=O)CCCC[C@@H]1SC[C@@H]2NC(=O)N[C@@H]21)C(C)C)C(=O)N[C@@H](CO)C(=O)N[C@H](C(=O)N[C@@H](CCCNC(=N)N)C(=O)N[C@@H](CCCNC(=N)N)C(=O)N[C@@H](CO)C(=O)N[C@@H](Cc1ccc(O)cc1)C(=O)N[C@@H](CO)C(=O)N[C@@H](CO)C(=O)N[C@@H](CO)C(=O)N[C@@H](CO)C(=O)NCC(=O)N[C@@H](C)C(N)=O)C(C)C [Ser24Ala] (Biotin-YSSYSAPVSSSLSVRRSYSSSSGA-NH2) | 44.3±6.7 % of cells | 29.4±0.6 % of cells
CC(C)C[C@H](NC(=O)[C@H](CO)NC(=O)[C@H](CO)NC(=O)[C@H](CO)NC(=O)[C@@H](NC(=O)[C@@H]1CCCN1C(=O)[C@H](C)NC(=O)[C@H](CO)NC(=O)[C@H](Cc1ccc(O)cc1)NC(=O)[C@H](CO)NC(=O)[C@H](CO)NC(=O)[C@H](C)NC(=O)CCCC[C@@H]1SC[C@@H]2NC(=O)N[C@@H]21)C(C)C)C(=O)N[C@@H](CO)C(=O)N[C@H](C(=O)N[C@@H](CCCNC(=N)N)C(=O)N[C@@H](CCCNC(=N)N)C(=O)N[C@@H](CO)C(=O)N[C@@H](Cc1ccc(O)cc1)C(=O)N[C@@H](CO)C(=O)N[C@@H](CO)C(=O)N[C@@H](CO)C(=O)N[C@@H](CO)C(=O)NCC(=O)N[C@@H](CO)C(N)=O)C(C)C [Tyr1Ala] (Biotin-ASSYSAPVSSSLSVRRSYSSSSGS-NH2) | 0 % of cells | 24.1±4.6 % of cells
